Patent publication US20240190880A1 (THE REGENTS OF THE UNIVERSITY OF MICHIGAN, priority 2021, published 2024)

Target: T1, ER (Homo sapiens, UniProt P03372)
T1 construct: host or cells: T47D and MCF7 human breast cancer cells
T1 sequence (P03372 1-595): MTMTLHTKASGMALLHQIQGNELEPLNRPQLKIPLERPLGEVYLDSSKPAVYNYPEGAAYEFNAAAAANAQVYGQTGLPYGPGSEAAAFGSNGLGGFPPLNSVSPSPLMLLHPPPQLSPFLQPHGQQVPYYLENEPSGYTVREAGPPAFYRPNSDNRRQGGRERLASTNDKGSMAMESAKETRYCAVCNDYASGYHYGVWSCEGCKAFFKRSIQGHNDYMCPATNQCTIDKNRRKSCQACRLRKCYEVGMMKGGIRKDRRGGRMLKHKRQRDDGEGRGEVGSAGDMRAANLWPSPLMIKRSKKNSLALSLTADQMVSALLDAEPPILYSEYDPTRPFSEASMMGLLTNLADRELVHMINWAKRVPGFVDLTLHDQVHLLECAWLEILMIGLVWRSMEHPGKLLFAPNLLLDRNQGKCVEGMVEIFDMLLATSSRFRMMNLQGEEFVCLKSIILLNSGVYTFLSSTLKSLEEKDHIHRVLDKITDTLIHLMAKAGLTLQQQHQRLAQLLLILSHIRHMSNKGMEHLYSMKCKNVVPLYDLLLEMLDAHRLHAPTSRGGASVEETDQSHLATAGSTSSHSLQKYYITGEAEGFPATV
Experiment: ER degradation activity, in-cell western blot analysis in T47D cells
Format: cell-based
Conditions: 16 hours, Table A does not say which cell line (T47D or MCF7), read-out: Potency (DC50)
Procedure, shortened: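 ER protein remaining after 16 h compound exposure is quantified in T47D cells by in-cell western, with a no-primary-antibody background control. Values are percentages of DMSO-treated signal.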

DC50 [nM]	SMILES
< 10	O=C1CCC(N2C(=O)c3cc4c(cc3C2=O)CN(C2CCN(CC3CN(c5ccc([C@@H]6c7ccc(O)cc7CC[C@@H]6c6ccccc6)cc5)C3)CC2)C4)C(=O)N1 (stereo partly drawn) [E243, 2-(2,6-dioxopiperidin-3-yl)-6-(1-((1-(4-((1R,2S)-6-hydroxy-2-phenyl-1,2,3,4-tetrahydronaphthalen-1-yl)phenyl)azetidin-3-yl)methyl)piperidin-4-yl)-6,7-dihydropyrrolo[3,4-f]isoindole-1,3(2H,5H)-dione]
10 to 100	O=C1CCC(N2C(=O)c3cc4c(cc3C2=O)CN(CC2CCN(CC3CN(c5ccc([C@@H]6c7ccc(O)cc7CC[C@@H]6c6ccccc6)cc5)C3)CC2)C4)C(=O)N1 (stereo partly drawn) [E244, 2-(2,6-dioxopiperidin-3-yl)-6-((1-((1-(4-((1R,2S)-6-hydroxy-2-phenyl-1,2,3,4-tetrahydronaphthalen-1-yl)phenyl)azetidin-3-yl)methyl)piperidin-4-yl)methyl)-6,7-dihydropyrrolo[3,4-f]isoindole-1,3(2H,5H)-dione]
> 100	O=C1CCC(N2C(=O)c3cc4c(cc3C2=O)CN(CC2(F)CCN(CC3CN(c5ccc([C@@H]6c7ccc(O)cc7CC[C@@H]6c6ccccc6)cc5)C3)CC2)C4)C(=O)N1 (stereo partly drawn) [E245, 2-(2,6-dioxopiperidin-3-yl)-6-((4-fluoro-1-((1-(4-((1R,2S)-6-hydroxy-2-phenyl-1,2,3,4-tetrahydronaphthalen-1-yl)phenyl)azetidin-3-yl)methyl)piperidin-4-yl)methyl)-6,7-dihydropyrrolo[3,4-f]isoindole-1,3(2H,5H)-dione]
< 10	C[C@@H]1Cc2c([nH]c3ccccc23)[C@@H](c2c(F)cc(C3CCC(C(=O)N4CCC(N5Cc6cc7c(cc6C5)C(=O)N(C5CCC(=O)NC5=O)C7=O)CC4)CC3)cc2F)N1CC(F)F (stereo partly drawn) [E246, 6-(1-(4-(4-((1R,3R)-2-(2,2-difluoroethyl)-3-methyl-2,3,4,9-tetrahydro-1H-pyrido[3,4-b]indol-1-yl)-3,5-difluorophenyl)cyclohexane-1-carbonyl)piperidin-4-yl)-2-(2,6-dioxopiperidin-3-yl)-6,7-dihydropyrrolo[3,4-f]isoindole-1,3(2H,5H)-dione]
10 to 100	C[C@@H]1Cc2c([nH]c3ccccc23)[C@@H](c2c(F)cc(C3CCC(C(=O)N4CCC(F)(CN5Cc6cc7c(cc6C5)C(=O)N(C5CCC(=O)NC5=O)C7=O)CC4)CC3)cc2F)N1CC(F)F (stereo partly drawn) [E247, 6-((1-(4-(4-((1R,3R)-2-(2,2-difluoroethyl)-3-methyl-2,3,4,9-tetrahydro-1H-pyrido[3,4-b]indol-1-yl)-3,5-difluorophenyl)cyclohexane-1-carbonyl)-4-fluoropiperidin-4-yl)methyl)-2-(2,6-dioxopiperidin-3-yl)-6,7-dihydropyrrolo[3,4-f]isoindole-1,3(2H,5H)-dione]
> 100	C[C@@H]1Cc2c([nH]c3ccccc23)[C@@H](c2c(F)cc(C3CCC(C(=O)N4CCC(CN5Cc6cc7c(cc6C5)C(=O)N(C5CCC(=O)NC5=O)C7=O)CC4)CC3)cc2F)N1CC(F)F (stereo partly drawn) [E248, 6-((1-(4-(4-((1R,3R)-2-(2,2-difluoroethyl)-3-methyl-2,3,4,9-tetrahydro-1H-pyrido[3,4-b]indol-1-yl)-3,5-difluorophenyl)cyclohexane-1-carbonyl)piperidin-4-yl)methyl)-2-(2,6-dioxopiperidin-3-yl)-6,7-dihydropyrrolo[3,4-f]isoindole-1,3(2H,5H)-dione]
> 100	C[C@@H]1Cc2c([nH]c3ccccc23)[C@@H](c2c(F)cc(C3CCC(C(=O)N4CC(N5Cc6cc7c(cc6C5)C(=O)N(C5CCC(=O)NC5=O)C7=O)C4)CC3)cc2F)N1CC(F)F (stereo partly drawn) [E249, 6-(1-(4-(4-((1R,3R)-2-(2,2-difluoroethyl)-3-methyl-2,3,4,9-tetrahydro-1H-pyrido[3,4-b]indol-1-yl)-3,5-difluorophenyl)cyclohexane-1-carbonyl)azetidin-3-yl)-2-(2,6-dioxopiperidin-3-yl)-6,7-dihydropyrrolo[3,4-f]isoindole-1,3(2H,5H)-dione]
< 10	C[C@@H]1Cc2c([nH]c3ccccc23)[C@@H](c2c(F)cc(C3CCC(C(=O)N4CC(CN5Cc6cc7c(cc6C5)C(=O)N(C5CCC(=O)NC5=O)C7=O)C4)CC3)cc2F)N1CC(F)F (stereo partly drawn) [E250, 6-((1-(4-(4-((1R,3R)-2-(2,2-difluoroethyl)-3-methyl-2,3,4,9-tetrahydro-1H-pyrido[3,4-b]indol-1-yl)-3,5-difluorophenyl)cyclohexane-1-carbonyl)azetidin-3-yl)methyl)-2-(2,6-dioxopiperidin-3-yl)-6,7-dihydropyrrolo[3,4-f]isoindole-1,3(2H,5H)-dione]
> 100	C[C@@H]1Cc2c([nH]c3ccccc23)[C@@H](c2c(F)cc(-c3ccc(CN4CCC(N5Cc6cc7c(cc6C5)C(=O)N(C5CCC(=O)NC5=O)C7=O)CC4)nc3)cc2F)N1CC(F)F (stereo partly drawn) [E326, 6-(1-((5-(4-((1R,3R)-2-(2,2-difluoroethyl)-3-methyl-2,3,4,9-tetrahydro-1H-pyrido[3,4-b]indol-1-yl)-3,5-difluorophenyl)pyridin-2-yl)methyl)piperidin-4-yl)-2-(2,6-dioxopiperidin-3-yl)-6,7-dihydropyrrolo[3,4-f]isoindole-1,3(2H,5H)-dione]
> 100	O=C1CCC(N2C(=O)c3cc4c(cc3C2=O)CN(c2ncc(CN3CC(Oc5ccc([C@@H]6c7ccc(O)cc7CC[C@@H]6c6ccccc6)cc5)C3)cn2)C4)C(=O)N1 (stereo partly drawn) [E327, 2-(2,6-dioxopiperidin-3-yl)-6-(5-((3-(4-((1R,2S)-6-hydroxy-2-phenyl-1,2,3,4-tetrahydronaphthalen-1-yl)phenoxy)azetidin-1-yl)methyl)pyrimidin-2-yl)-6,7-dihydropyrrolo[3,4-f]isoindole-1,3(2H,5H)-dione]

More lines, now with the values behind:

SMILES	DC50 [nM]
CN(C1CN(c2ccc([C@@H]3c4ccc(O)cc4CC[C@@H]3c3ccccc3)cc2)C1)[C@H]1CC[C@@H](C(=O)N2Cc3cc4c(cc3C2)C(=O)N(C2CCC(=O)NC2=O)C4)CC1 (single isomer, unassigned) [E 356]	> 100
O=C1CCC(N2Cc3cc4c(cc3C2=O)CN(C(=O)[C@H]2CC[C@H](N3CC(Oc5ccc([C@@H]6c7ccc(O)cc7CC[C@@H]6c6ccccc6)cc5)C3)CC2)C4)C(=O)N1 (single isomer, unassigned) [E 357]	< 10
O=C1CCC(N2Cc3cc4c(cc3C2=O)CN(C(=O)[C@H]2CC[C@@H](N3CC(Oc5ccc([C@@H]6c7ccc(O)cc7CC[C@@H]6c6ccccc6)cc5)C3)CC2)C4)C(=O)N1 (single isomer, unassigned) [E 358]	> 100
O=C1CCC(N2Cc3cc4c(cc3C2=O)CN(C(=O)[C@H]2CC[C@H](N3CC(Nc5ccc([C@@H]6c7ccc(O)cc7CC[C@@H]6c6ccccc6)cc5)C3)CC2)C4)C(=O)N1 (single isomer, unassigned) [E 360]	< 10
O=C1CCC(N2Cc3cc4c(cc3C2=O)CN(C(=O)[C@H]2CC[C@@H](N3CC(Nc5ccc([C@@H]6c7ccc(O)cc7CC[C@@H]6c6ccccc6)cc5)C3)CC2)C4)C(=O)N1 (single isomer, unassigned) [E 361]	> 100
C[C@H]1Cc2c([nH]c3ccccc23)[C@H](c2c(F)cc(N3CC4(CCCN(C(=O)CN5Cc6cc7c(cc6C5)C(=O)N(C5CCC(=O)NC5=O)C7=O)C4)C3)cc2F)N1CC(F)F (stereo in doubt) [E 80, 6-(2-(2-(4-((1S,3S)-2-(2,2-difluoroethyl)-3-methyl-2,3,4,9-tetrahydro-1H-pyrido[3,4-b]indol-1-yl)-3,5-difluorophenyl)-2,6-diazaspiro[3.5]nonan-6-yl)-2-oxoethyl)-2-(2,6-dioxopiperidin-3-yl)-6,7-dihydropyrrolo[3,4-f]isoindole-1,3(2H,5H)-dione]	10 to 100
C[C@H]1Cc2c([nH]c3ccccc23)[C@H](c2c(F)cc(N3CC4(CCN(C(=O)CN5Cc6cc7c(cc6C5)C(=O)N(C5CCC(=O)NC5=O)C7=O)CC4)C3)cc2F)N1CC(F)F (stereo in doubt) [E 84, 6-(2-(2-(4-((1S,3S)-2-(2,2-difluoroethyl)-3-methyl-2,3,4,9-tetrahydro-1H-pyrido[3,4-b]indol-1-yl)-3,5-difluorophenyl)-2,7-diazaspiro[3.5]nonan-7-yl)-2-oxoethyl)-2-(2,6-dioxopiperidin-3-yl)-6,7-dihydropyrrolo[3,4-f]isoindole-1,3(2H,5H)-dione]	< 10
C[C@H]1Cc2c([nH]c3ccccc23)[C@H](c2c(F)cc(N3CC4(CCN(C(=O)CN5Cc6cc7c(cc6C5)C(=O)N(C5CCC(=O)NC5=O)C7)CC4)C3)cc2F)N1CC(F)F (stereo in doubt) [E 85, 3-(6-(2-(2-(4-((1S,3S)-2-(2,2-difluoroethyl)-3-methyl-2,3,4,9-tetrahydro-1H-pyrido[3,4-b]indol-1-yl)-3,5-difluorophenyl)-2,7-diazaspiro[3.5]nonan-7-yl)-2-oxoethyl)-1-oxo-3,5,6,7-tetrahydropyrrolo[3,4-f]isoindol-2(1H)-yl)piperidine-2,6-dione]	< 10
